Measured values from paper PMC3956608 (PLoS ONE, 2014).
pKd, pKi: −log10 of the molar value.

Key:
[1] = target: T1, acetylcholine binding protein (Ls-AChBP) (Lymnaea stagnalis, UniProt P58154); assay: radioligand binding, HEK-293 cell homogenate; set-up: Ls-AChBP linked to a 5HT3 receptor ion channel (Ls-AChBP-5HT3 receptor chimera); settings: cited from earlier work
[2] = target: T1, acetylcholine binding protein (Ls-AChBP); assay: biochemical

T1 sequence (P58154 20-229): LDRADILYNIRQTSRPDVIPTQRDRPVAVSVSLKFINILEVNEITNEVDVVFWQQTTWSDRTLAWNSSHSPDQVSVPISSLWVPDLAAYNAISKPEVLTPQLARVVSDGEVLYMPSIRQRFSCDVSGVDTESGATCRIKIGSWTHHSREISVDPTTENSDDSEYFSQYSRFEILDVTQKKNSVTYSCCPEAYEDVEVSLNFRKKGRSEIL

SMILES | pKd [1] | pKi [2]
Clc1ccc(C2CC3CCC2N3)cn1 (centres unmarked) [[3H]-epibatidine] | 10.01 | –
CC(=O)OCC[N+](C)(C)C [acetylcholine] | – | 5.82
